{"source": "patent US8796244B2", "about": "“Imidazopyridine derivatives as inhibitors of receptor tyrosine kinases” (Astex Therapeutics Ltd, priority 2008, dated 2014)", "note": "Structures can show the parent of a compound that is named as a salt.", "data": [{"test_system": "parental wild-type Ba/F3 cells", "assay": "Ba/F3 (WT) cell proliferation assay (Alamar Blue)", "assay_type": "cell-based", "details": "Mus musculus, BaF3, 72 h, read-out: BaF3 WT prolif (μM)", "units": {"IC50": "µM"}, "values": [{"smiles": "Cc1nnc(-c2ccn3c(-c4cccc(NC(=O)NCC(F)(F)F)c4)cnc3c2)nc1C", "note": "[Example 118, 1-{3-[7-(5,6-Dimethyl-[1,2,4]triazin-3-yl)-imidazo[1,2-a]pyridin-3-yl]-phenyl}-3-(2,2,2-trifluoro-ethyl)-urea hydrochloride]", "IC50": 0.88}, {"smiles": "CN(C)c1ccnc(-c2ccn3c(-c4cccc(NC(=O)NCC(F)(F)F)c4)cnc3c2)n1", "note": "[Example 120, 1-{3-[7-(4-Dimethylamino-pyrimidin-2-yl)-imidazo[1,2-a]pyridin-3-yl]-phenyl}-3-(2,2,2-trifluoro-ethyl)-urea hydrochloride]", "IC50": 1.1}, {"smiles": "O=C(NCC(F)(F)F)Nc1cncc(-c2cnc3cc(-c4cnn(C5CNC5)c4)ccn23)c1", "note": "[Example 123, 1-{5-[7-(1-Azetidin-3-yl-1H-pyrazol-4-yl)-imidazo[1,2-a]pyridin-3-yl]-pyridin-3-yl}-3-(2,2,2-trifluoro-ethyl)-urea formate]", "IC50": 8.9}, {"smiles": "Nc1cccnc1-c1ccn2c(-c3cccc(NC(=O)NCC(F)(F)F)c3)cnc2c1", "note": "[Example 125, 1-{3-[7-(3-Amino-pyridin-2-yl)-imidazo[1,2-a]pyridin-3-yl]-phenyl}-3-(2,2,2-trifluoro-ethyl)-urea hydrochloride]", "IC50": 2.1}]}, {"test_system": "parental wild-type Ba/F3 cells", "assay": "Ba/F3 (WT) cell proliferation assay (Alamar Blue)", "assay_type": "cell-based", "details": "Mus musculus, BaF3, read-out: BaF3 WT prolif, % inhibition", "units": {"inhibition at 3 µM": "%", "inhibition at 10 µM": "%", "inhibition at 1 µM": "%"}, "values": [{"smiles": "NC(=O)Nc1cccc(-c2cnc3cc(Cl)ccn23)c1", "note": "[Example 119, [3-(7-Chloro-imidazo[1,2-a]pyridin-3-yl)-phenyl]-urea]", "inhibition at 3 µM": 23}, {"smiles": "O=C(NCC(F)(F)F)Nc1cccc(-c2cnc3cc(-c4ccc(OC5CCNCC5)nn4)ccn23)c1", "note": "[Example 130, 1-(3-{7-[6-(Piperidin-4-yloxy)-pyridazin-3-yl]-imidazo[1,2-a]pyridin-3-yl}-phenyl)-3-(2,2,2-trifluoro-ethyl)-urea]", "inhibition at 10 µM": 26}, {"smiles": "O=C(NCC(F)(F)F)Nc1cccc(-c2cnc3cc(-c4ccc(OC5CCCNC5)nn4)ccn23)c1", "note": "(centres unmarked) [Example 131, 1-(3-{7-[6-(Piperidin-3-yloxy)-pyridazin-3-yl]-imidazo[1,2-a]pyridin-3-yl}-phenyl)-3-(2,2,2-trifluoro-ethyl)-urea]", "inhibition at 10 µM": 2.9}, {"smiles": "COc1cncnc1-c1ccn2c(-c3cccc(NC(=O)NCC(F)(F)F)c3)cnc2c1", "note": "[Example 140, 1-{3-[7-(5-Methoxy-pyrimidin-4-yl)-imidazo[1,2-a]pyridin-3-yl]-phenyl}-3-(2,2 ,2-trifluoro-ethyl)-urea]", "inhibition at 10 µM": 7.1}, {"smiles": "Cn1cncc1/C=C/c1ccn2c(-c3cccc(NC(=O)NCC(F)(F)F)c3)cnc2c1", "note": "[Example 155, 1-(3-{7-[(E)-2-(3-Methyl-3H-imidazol-4-yl)-vinyl]-imidazo[1,2-a]pyridin-3-yl}-phenyl)-3-(2,2,2-trifluoro-ethyl)-urea]", "inhibition at 3 µM": 28}, {"smiles": "Cc1nnc(-c2ccn3c(-c4cccc(NC(=O)NC5CC5)c4)cnc3c2)o1", "note": "[Example 157, 1-Cyclopropyl-3-{3-[7-(5-methyl-[1,3,4]oxadiazol-2-yl)-imidazo[1,2-a]pyridin-3-yl]-phenyl}-urea]", "inhibition at 10 µM": 38}, {"smiles": "Nc1cnc(-c2ccn3c(-c4cccc(NC(=O)NCC(F)(F)F)c4)cnc3c2)nc1Cl", "note": "[Example 170]", "inhibition at 3 µM": 14}, {"smiles": "Cc1cc(N)nc(-c2ccn3c(-c4cccc(NC(=O)NCC(F)(F)F)c4)cnc3c2)n1", "note": "[Example 171]", "inhibition at 1 µM": 16}, {"smiles": "O=C(NCC(F)(F)F)Nc1cccc(-c2cnc3cc(-c4ncc(F)c(NC5CC5)n4)ccn23)c1", "note": "[Example 180]", "inhibition at 10 µM": 42}, {"smiles": "O=C(NCC(F)(F)F)Nc1cccc(-c2cnc3cc(-c4cc(=O)[nH]cn4)ccn23)c1", "note": "[Example 184]", "inhibition at 10 µM": 22}, {"smiles": "O=C(NCC(F)(F)F)Nc1cccc(-c2cnc3cc(-c4nccc(=O)[nH]4)ccn23)c1", "note": "[Example 190]", "inhibition at 3 µM": 35}, {"smiles": "Cc1nc(-c2ccn3c(-c4cccc(NC(=O)NCC(F)(F)F)c4)cnc3c2)cc(N2CCN(CCO)CC2)n1", "note": "[Example 194]", "inhibition at 3 µM": 26}, {"smiles": "O=C(NCC(F)(F)F)Nc1cccc(-c2cnc3cc(-c4ccnc(C(F)(F)F)n4)ccn23)c1", "note": "[Example 199]", "inhibition at 10 µM": 62}, {"smiles": "O=C(NCC(F)(F)F)Nc1cccc(-c2cnc3cc(-c4nccc(N5CC(O)C5)n4)ccn23)c1", "note": "[Example 203]", "inhibition at 10 µM": 30}, {"smiles": "NC(=O)c1ccc(-c2ccn3c(-c4cccc(NC(=O)NCC(F)(F)F)c4)cnc3c2)nc1", "note": "[Example 207]", "inhibition at 10 µM": 14}, {"smiles": "Cc1nc(N)cc(-c2ccn3c(-c4cccc(NC(=O)NCC(F)(F)F)c4)cnc3c2)n1", "note": "[Example 208]", "inhibition at 10 µM": 21}, {"smiles": "NC(=O)c1ccnc(-c2ccn3c(-c4cccc(NC(=O)NCC(F)(F)F)c4)cnc3c2)c1", "note": "[Example 209]", "inhibition at 10 µM": 0}, {"smiles": "O=C(NCC(F)(F)F)Nc1cccc(-c2cnc3cc(-c4nccc(-n5ccnc5)n4)ccn23)c1", "note": "[Example 213]", "inhibition at 10 µM": 22}, {"smiles": "CN(C)S(=O)(=O)n1ccnc1-c1ccnc(-c2ccn3c(-c4cccc(NC(=O)NCC(F)(F)F)c4)cnc3c2)n1", "note": "[Example 216]", "inhibition at 10 µM": 28}, {"smiles": "O=C(NCC(F)(F)F)Nc1cccc(-c2cnc3cc(-c4cnn(C5CN(CCO)C5)c4)ccn23)c1", "note": "[Example 217]", "inhibition at 3 µM": 37}, {"smiles": "CNc1cc(-c2ccn3c(-c4cccc(NC(=O)NCC(F)(F)F)c4)cnc3c2)nc(SC)n1", "note": "[Example 218]", "inhibition at 10 µM": 30}, {"smiles": "O=C(NCC(F)(F)F)Nc1cccc(-c2cnc3cc(-c4nccc(C(=O)N5CCOCC5)n4)ccn23)c1", "note": "[Example 221]", "inhibition at 3 µM": 21}, {"smiles": "Cc1cn2nc(-c3ccn4c(-c5cccc(NC(=O)NCC(F)(F)F)c5)cnc4c3)sc2n1", "note": "[Example 225]", "inhibition at 10 µM": 0}, {"smiles": "Cc1cc(-c2ccn3c(-c4cccc(NC(=O)NCC(F)(F)F)c4)cnc3c2)nc(C(C)C)n1", "note": "[Example 226]", "inhibition at 10 µM": 40}, {"smiles": "Nc1nc(-c2ccn3c(-c4cccc(NC(=O)NCC(F)(F)F)c4)cnc3c2)ccc1C(F)(F)F", "note": "[Example 231]", "inhibition at 10 µM": 23}, {"smiles": "CCOc1cnc(-c2ccn3c(-c4cccc(NC(=O)NCC(F)(F)F)c4)cnc3c2)nc1", "note": "[Example 240]", "inhibition at 10 µM": 17}]}, {"test_system": "parental wild-type Ba/F3 cells", "assay": "Ba/F3 (WT) cell proliferation assay (Alamar Blue)", "assay_type": "cell-based", "details": "Mus musculus, BaF3; 72 hours, Alamar Blue; read-out: BaF3 WT prolif", "units": {"IC50": "µM"}, "values": [{"smiles": "O=C(NCC(F)(F)F)Nc1cccc(-c2cnc3cc(-c4ccc(CCO)cn4)ccn23)c1", "note": "[Example 122, 1-(3-{7-[5-(2-Hydroxy-ethyl)-pyridin-2-yl]-imidazo[1,2-a]pyridin-3-yl}-phenyl)-3-(2,2,2-trifluoro-ethyl)-urea]", "IC50": 2.4}, {"smiles": "Cc1cc(-c2ccn3c(-c4cccc(NC(=O)NCC(F)(F)F)c4)cnc3c2)nnc1Cl", "note": "[Example 135, 1-{3-[7-(6-Chloro-5-methyl-pyridazin-3-yl)-imidazo[1,2-a]pyridin-3-yl]-phenyl}-3-(2,2,2-trifluoro-ethyl)-urea]", "IC50": 0.51}, {"smiles": "Cc1cc(Cl)nnc1-c1ccn2c(-c3cccc(NC(=O)NCC(F)(F)F)c3)cnc2c1", "note": "[Example 136, 1-{3-[7-(6-Chloro-4-methyl-pyridazin-3-yl)-imidazol[1,2-a]pyridin-3-yl]-phenyl}-3-(2,2,2-trifluoro-ethyl)-urea]", "IC50": 0.44}, {"smiles": "COc1cnc(Cl)nc1-c1ccn2c(-c3cccc(NC(=O)NCC(F)(F)F)c3)cnc2c1", "note": "[Example 139, 1-{3-[7-(2-Chloro-5-methoxy-pyrimidin-4-yl)-imidazo[1,2-a]pyridin-3-yl]-phenyl}-3-(2,2,2-trifluoro-ethyl)-urea]", "IC50": 3.6}, {"smiles": "Cc1cnnc(-c2ccn3c(-c4cccc(NC(=O)NCC(F)(F)F)c4)cnc3c2)n1", "note": "[Example 142, 1-{3-[7-(5-Methyl-[1,2,4]triazin-3-yl)-imidazo[1,2-a]pyridin-3-yl]-phenyl}-3-(2,2,2-trifluoro-ethyl)-urea]", "IC50": 1.1}, {"smiles": "CC(=O)N1CCN(c2ccc(-c3ccn4c(-c5cccc(NC(=O)NCC(F)(F)F)c5)cnc4c3)cn2)CC1", "note": "[Example 145, 1-(3-{7-[6-(4-Acetyl-piperazin-1-yl)-pyridin-3-yl]-imidazo[1,2-a]pyridin-3-yl}-phenyl)-3-(2,2,2-trifluoro-ethyl)-urea]", "IC50": 0.82}, {"smiles": "COc1ncccc1-c1ccn2c(-c3cccc(NC(=O)NCC(F)(F)F)c3)cnc2c1", "note": "[Example 150, 1-{3-[7-(2-Methoxy-pyridin-3-yl)-imidazo[1,2-a]pyridin-3-yl]-phenyl}-3-(2,2,2-trifluoro-ethyl)-urea]", "IC50": 1.7}, {"smiles": "O=C(Nc1cccc(-c2cnc3cc(-c4nncs4)ccn23)c1)NC1CC1", "note": "[Example 158, 1-Cyclopropyl-3-[3-(7-[1,3,4]thiadiazol-2-yl-imidazo[1,2-a]pyridin-3-yl)-phenyl]-urea]", "IC50": 2.9}, {"smiles": "Cc1nc(-c2ccn3c(-c4cccc(NC(=O)NCC(F)(F)F)c4)cnc3c2)ccc1F", "note": "[Example 172]", "IC50": 3.4}, {"smiles": "Cn1ccnc1/C=C/c1ccn2c(-c3cccc(NC(=O)NCC(F)(F)F)c3)cnc2c1", "note": "[Example 189]", "IC50": 3.4}, {"smiles": "NC1CN(c2ccnc(-c3ccn4c(-c5cccc(NC(=O)NCC(F)(F)F)c5)cnc4c3)n2)C1", "note": "[Example 197]", "IC50": 2.6}, {"smiles": "COc1ccc(-c2ccn3c(-c4cccc(NC(=O)NCC(F)(F)F)c4)cnc3c2)nc1", "note": "[Example 204]", "IC50": 0.82}, {"smiles": "CSc1nc(N)cc(-c2ccn3c(-c4cccc(NC(=O)NCC(F)(F)F)c4)cnc3c2)n1", "note": "[Example 205]", "IC50": 9.8}, {"smiles": "O=C(NCC(F)(F)F)Nc1cccc(-c2cnc3cc(/C=C/CO)ccn23)c1", "note": "[Example 206]", "IC50": 2.9}, {"smiles": "CN(C)c1cc(-c2ccn3c(-c4cccc(NC(=O)NCC(F)(F)F)c4)cnc3c2)nc(C(F)(F)F)n1", "note": "[Example 214]", "IC50": 2.6}, {"smiles": "Cc1nc2cc(-c3ccn4c(-c5cccc(NC(=O)NCC(F)(F)F)c5)cnc4c3)ccc2s1", "note": "[Example 219]", "IC50": 3.5}, {"smiles": "CNC(=O)c1ccnc(-c2ccn3c(-c4cccc(NC(=O)NCC(F)(F)F)c4)cnc3c2)n1", "note": "[Example 220]", "IC50": 1.5}, {"smiles": "CNC(=O)c1cc(C)nc(-c2ccn3c(-c4cccc(NC(=O)NCC(F)(F)F)c4)cnc3c2)n1", "note": "[Example 222]", "IC50": 2.3}, {"smiles": "O=C(NCC(F)(F)F)Nc1cccc(-c2cnc3cc(-c4cc(C(F)(F)F)ncn4)ccn23)c1", "note": "[Example 227]", "IC50": 3.6}, {"smiles": "CCNC(=O)Nc1cccc(-c2cnc3cc(-c4ccc(F)c(C)n4)ccn23)c1", "note": "[Example 228]", "IC50": 5.1}, {"smiles": "Nc1cc(-c2ccn3c(-c4cccc(NC(=O)NCC(F)(F)F)c4)cnc3c2)ncc1C(F)(F)F", "note": "[Example 234]", "IC50": 6.4}, {"smiles": "CCNC(=O)Nc1cccc(-c2cnc3cc(-c4ncc(C(F)(F)F)c(N)n4)ccn23)c1", "note": "[Example 235]", "IC50": 1.2}, {"smiles": "Cc1cc(-c2ccn3c(-c4cccc(NC(=O)NCC(F)(F)F)c4)cnc3c2)nc(C(F)(F)F)n1", "note": "[Example 237]", "IC50": 0.12}]}]}
